Laboratory results reported in PubChem BioAssay AID2060491 (Molecular Pharmacology Branch, DTP, NCI, 2025).
Where “and” joins values, the source holds several entries; their conditions need not be identical. Equal entries are not always repeated.

Tested on: 857933-349-R-J2-PDC complex spheroids, viability
Test: Anticancer human tumor 857933-349-R-J2-PDC patient-derived colon adenocarcinoma cell line growth inhibition [GQUAD]
Conditions: for viability, T/C: stronger effect = lower value
From the text: DNA G-quadruplex Stabilizer Agents in Combinations in Complex Spheroids
A high-throughput screen of multi-cell type tumor spheroids was designed to identify active combinations of DNA G-quadruplex stabilizer agents and targeted small molecules. Complex spheroids include a stromal component modeled by human endothelial cells (HUVEC) and fibroblasts modeled by human mesenchymal stem cells (MSCs). The concentration ranges selected for each drug and investigational agent were based upon clinically achievable concentrations if the clinical Cmax of the agent was known.
Compounds. The drugs and investigational agents: pidnarulex (CX-5461; NSC782164), APTO-253 (NSC789042), BRACO-19 (NSC847499), peposertib (NSC802822), ceralasertib (NSC780249), elimusertib (NSC800525), camonsertib (NSC841442), AZD-1390 (NSC803789), olaparib (NSC753686), talazoparib (NSC767125), ART-558 (NSC835418), sotorasib (NSC818433), MRTX-1133 (NSC836407), SN-38 (NSC673596), topotecan (NSC609699), etoposide (NSC141540), doxorubicin (NSC123127), gemcitabine (NSC613327), 5-fluorouracil (NSC19893), paclitaxel (NSC125973), vemurafenib (NSC761431), panobinostat (NSC761190), R-306465 (JNJ-16241199; NSC773264), adavosertib (NSC754352), TP-3654 (NSC805149), carboplatin (NSC241240), KSQ-4279 (NSC840948), and staurosporine (NSC755774) were obtained from the National Cancer Institute (NCI) Developmental Therapeutics Program Chemical Repository (34). The FDA-approved anticancer drug set is available from the NCI Developmental Therapeutics Program. […] The stock solutions were prepared in dimethyl sulfoxide (DMSO, Sigma-Aldrich, St. Louis, MO, cat. D2650) at 800-fold the tested concentration and stored at -70 degrees C prior to their use. All drugs and investigational agents were tested over a range starting from a high concentration at or near the clinical Cmax and decreasing in half-log increments. If the clinical Cmax for an agent had not been determined, the highest concentration tested was 10 microM.
2.3 Cell Culture. All cells were maintained in an incubator at 37 degrees C and 5% CO2 with 95% humidity. The PDC lines were cultured according to standard operating procedures established by the NCI PDMR. All PDCs were thawed and cultured in Matrigel-coated flasks prepared with a working solution of 1X Ham's F-12 nutrient mix, without supplementation (Invitrogen, cat. 11765054), 100 U/mL penicillin-streptomycin (Invitrogen, cat. 15140122), and 2.5% Matrigel (Corning Inc., cat. 354248) for the first three passages. The 857933-349-R-J2-PDC line was cultured in 6C/Colon 1B media, which includes advanced DMEM/F-12 (Thermo Fisher Scientific, cat. 12634028), 10 mM HEPES (Thermo Fisher Scientific, cat. 15630080), 1X GlutaMAX supplement (Thermo Fisher Scientific, cat. 35050061), 0.1 mg/mL primocin (InvivoGen, cat. ant-pm-2), 10% defined fetal bovine serum, heat inactivated (HyClone Laboratories Inc., cat. SH30070.03HI), 50% L-WRN conditioned media (ATCC, cat. CRL-3276), 1.25 mM N-Acetyl-L-cysteine (Sigma-Aldrich, cat. A9165), 10 mM nicotinamide (Sigma-Aldrich, cat. N0636), 1X B-27 supplement (Thermo Fisher Scientific, cat. 17504044), 1X N-2 supplement (Thermo Fisher Scientific, cat. 17502048), 10 microM Y-27632 dihydrochloride (Tocris Bioscience, cat. 1254), and 50 ng/mL human EGF recombinant protein (Thermo Fisher Scientific, cat. PHG0311). The 485176-168-R4-J1-PDC line was cultured in Panc media, which includes all 6C/Colon 1B media components plus 100 ng/mL human FGF-10 (Thermo Fisher Scientific, cat. 100-26), 500 nM SB-431542 (Selleckchem, cat. S1067), and gastrin (Tocris, cat. 3006).
[…]

[1] = curve of first compound, second compound 0.0316 µM
[2] = curve of first compound, second compound 0.1 µM
[3] = curve of first compound, second compound 0.316 µM
[4] = curve of first compound, second compound 1 µM
[5] = curve of first compound, second compound 3.16 µM
[6] = curve of first compound, second compound 10 µM
[7] = second compound 0.0316 µM, first compound 0.0316 µM
[8] = second compound 0.0316 µM, first compound 0.1 µM
[9] = second compound 0.0316 µM, first compound 0.316 µM
[10] = second compound 0.0316 µM, first compound 1 µM
[11] = second compound 0.0316 µM, first compound 3.16 µM
[12] = second compound 0.0316 µM, first compound 10 µM
[13] = second compound 0.1 µM, first compound 0.0316 µM
[14] = second compound 0.1 µM, first compound 0.1 µM
[15] = second compound 0.1 µM, first compound 0.316 µM
[16] = second compound 0.1 µM, first compound 1 µM
[17] = second compound 0.1 µM, first compound 3.16 µM
[18] = second compound 0.1 µM, first compound 10 µM
[19] = second compound 0.316 µM, first compound 0.0316 µM
[20] = second compound 0.316 µM, first compound 0.1 µM
[21] = second compound 0.316 µM, first compound 0.316 µM
[22] = second compound 0.316 µM, first compound 1 µM
[23] = second compound 0.316 µM, first compound 3.16 µM
[24] = second compound 0.316 µM, first compound 10 µM
[25] = second compound 1 µM, first compound 0.0316 µM
[26] = second compound 1 µM, first compound 0.1 µM
[27] = second compound 1 µM, first compound 0.316 µM
[28] = second compound 1 µM, first compound 1 µM
[29] = second compound 1 µM, first compound 3.16 µM
[30] = second compound 1 µM, first compound 10 µM
[31] = second compound 3.16 µM, first compound 0.0316 µM
[32] = second compound 3.16 µM, first compound 0.1 µM
[33] = second compound 3.16 µM, first compound 0.316 µM
[34] = second compound 3.16 µM, first compound 1 µM
[35] = second compound 3.16 µM, first compound 3.16 µM
[36] = second compound 3.16 µM, first compound 10 µM
[37] = second compound 10 µM, first compound 0.0316 µM
[38] = second compound 10 µM, first compound 0.1 µM
[39] = second compound 10 µM, first compound 0.316 µM
[40] = second compound 10 µM, first compound 1 µM
[41] = second compound 10 µM, first compound 3.16 µM
[42] = second compound 10 µM, first compound 10 µM
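Also: spheroids exposed to compounds for one week before readout.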
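For viability, T/C in this document: percent viability relative to vehicle DMSO wells taken as 100%.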

In the case of `CC(C)(O)C1CCC(Nc2ccc3ncc(-c4cccc(C(F)(F)F)c4)n3n2)CC1` (stereo not drawn) + Cc1cnc(CNC(=O)c2c(=O)c3ccc(N4CCCN(C)CC4)nc3n3c2sc2ccccc23)cn1, the IC50 [1] is reported as 487 nM, the IC50 [2] is reported as 151 nM and the IC50 [3] is reported as < 31.6 nM. For the same compound, the IC50 [4] was < 31.6 nM, the IC50 [5] was < 31.6 nM and the IC50 [6] was < 31.6 nM. For the same compound, the viability, T/C [7] was 86.5%, the viability, T/C [8] was 76% and the viability, T/C [9] was 73.6%. It also gave a viability, T/C [10] of 11.1%, a viability, T/C [11] of 0.4% and a viability, T/C [12] of 0.23%. For the same compound, the viability, T/C [13] was 53.4%, the viability, T/C [14] was 57.2% and the viability, T/C [15] was 41.4%. For the same compound, the viability, T/C [16] was 14%, the viability, T/C [17] was 0.2% and the viability, T/C [18] was 0.19%. For the same compound, the viability, T/C [19] was 16.1%, the viability, T/C [20] was 12.6% and the viability, T/C [21] was 8.9%. For the same compound, the viability, T/C [22] was 7.61%, the viability, T/C [23] was 0.11% and the viability, T/C [24] was 0.07%. For the same compound, the viability, T/C [25] was 3.09%, the viability, T/C [26] was 3% and the viability, T/C [27] was 2.95%. For the same compound, the viability, T/C [28] was 3.84%, the viability, T/C [29] was 0.05% and the viability, T/C [30] was 0.07%. The viability, T/C [31] was 1.54%, the viability, T/C [32] was 1.85% and the viability, T/C [33] was 2.05%. It also gave a viability, T/C [34] of 1.16%, a viability, T/C [35] of 0.11% and a viability, T/C [36] of 0.12%. It also gave a viability, T/C [37] of 0.23%, a viability, T/C [38] of 0.19% and a viability, T/C [39] of 0.3%. It also gave a viability, T/C [40] of 0.28%, a viability, T/C [41] of 0.22% and a viability, T/C [42] of 0.21%.
With `CC[C@@]1(O)C(=O)OCc2c1cc1n(c2=O)Cc2cc3c(CN(C)C)c(O)ccc3nc2-1` the viability, T/C (compound 0.000999 µM) was 98.7% and 105% and 103%, the viability, T/C (compound 0.00316 µM) was 82.7% and 104% and 89% and the viability, T/C (compound 0.00999 µM) was 92.6% and 97.9% and 98.2%. For the same compound, the viability, T/C (compound 0.0316 µM) was 70.4% and 96.6% and 71.6%, the viability, T/C (compound 0.0999 µM) was 52.3% and 67.8% and 57.9% and the viability, T/C (compound 0.316 µM) was 40.8% and 48.1% and 34.1%. The IC50 (curve of compound) was 115 nM and 282 nM and 138 nM.
Compound `O=c1[nH]cc(F)c(=O)[nH]1` + Cc1[nH]c2ccc(F)cc2c1-c1nc2c3cccnc3c3ncccc3c2[nH]1 has an IC50 [1] of 1720 nM, an IC50 [2] of 1800 nM and an IC50 [3] of 2100 nM. For the same compound, the IC50 [4] was 2150 nM, the IC50 [5] was 2060 nM and the IC50 [6] was 2200 nM. The viability, T/C [7] was 97.1%, the viability, T/C [8] was 111% and the viability, T/C [9] was 99%. For the same compound, the viability, T/C [10] was 65.7%, the viability, T/C [11] was 33.3% and the viability, T/C [12] was 22.6%. The viability, T/C [13] was 104%, the viability, T/C [14] was 103% and the viability, T/C [15] was 96.8%. It also gave a viability, T/C [16] of 64.8%, a viability, T/C [17] of 36% and a viability, T/C [18] of 22.5%. The viability, T/C [19] was 100%, the viability, T/C [20] was 99.3% and the viability, T/C [21] was 94%. The viability, T/C [22] was 74.9%, the viability, T/C [23] was 36.1% and the viability, T/C [24] was 22.6%. The viability, T/C [25] was 101%, the viability, T/C [26] was 98.2% and the viability, T/C [27] was 96.7%. The viability, T/C [28] was 75.7%, the viability, T/C [29] was 37% and the viability, T/C [30] was 23%. It also gave a viability, T/C [31] of 96.3%, a viability, T/C [32] of 94.7% and a viability, T/C [33] of 96.7%. The viability, T/C [34] was 73.8%, the viability, T/C [35] was 36.1% and the viability, T/C [36] was 22.6%. For the same compound, the viability, T/C [37] was 93.2%, the viability, T/C [38] was 96.8% and the viability, T/C [39] was 95.2%. The viability, T/C [40] was 82%, the viability, T/C [41] was 35.3% and the viability, T/C [42] was 24.8%.
Compound `CC1COCCN1c1cc(C2(S(C)(=N)=O)CC2)nc(-c2ccnc3[nH]ccc23)n1` (stereo not drawn) + Cc1[nH]c2ccc(F)cc2c1-c1nc2c3cccnc3c3ncccc3c2[nH]1 has an IC50 [1] of 6700 nM, an IC50 [2] of 6020 nM and an IC50 [3] of 6090 nM. For the same compound, the IC50 [4] was 7100 nM, the IC50 [5] was 7160 nM and the IC50 [6] was 6450 nM. It also gave a viability, T/C [7] of 101%, a viability, T/C [8] of 103% and a viability, T/C [9] of 88.5%. For the same compound, the viability, T/C [10] was 75.4%, the viability, T/C [11] was 59.6% and the viability, T/C [12] was 45%. It also gave a viability, T/C [13] of 99.9%, a viability, T/C [14] of 101% and a viability, T/C [15] of 93.3%. The viability, T/C [16] was 80.9%, the viability, T/C [17] was 58.8% and the viability, T/C [18] was 43%. For the same compound, the viability, T/C [19] was 106%, the viability, T/C [20] was 108% and the viability, T/C [21] was 90.2%. The viability, T/C [22] was 79.5%, the viability, T/C [23] was 58.9% and the viability, T/C [24] was 43.1%. For the same compound, the viability, T/C [25] was 103%, the viability, T/C [26] was 98.2% and the viability, T/C [27] was 91.9%. The viability, T/C [28] was 83.6%, the viability, T/C [29] was 59.7% and the viability, T/C [30] was 45.7%. For the same compound, the viability, T/C [31] was 108%, the viability, T/C [32] was 96.3% and the viability, T/C [33] was 81.2%. It also gave a viability, T/C [34] of 86.3%, a viability, T/C [35] of 60.4% and a viability, T/C [36] of 43.6%. For the same compound, the viability, T/C [37] was 104%, the viability, T/C [38] was 98.5% and the viability, T/C [39] was 92.5%. For the same compound, the viability, T/C [40] was 90.9%, the viability, T/C [41] was 62.3% and the viability, T/C [42] was 42.1%.
